According to ChEMBL document CHEMBL5303766, “Data for DCP probe FHT-2344” (2022):

How the values were obtained:
[1] = biological target: Chromodomain-helicase-DNA-binding protein 4 (Homo sapiens, UniProt Q14839); assay: Measurement of the ATPase catalytic activity using the ADP-Glo detection ([…]); format: functional
[2] = biological target: Casein kinase II subunit alpha' (Homo sapiens) (UniProt P19784); assay: CSNK2A2A SGC Tm panel (DSF)
[3] = biological target: Beta-3 adrenergic receptor (Homo sapiens) (UniProt P13945); settings: Compound concentration 10.0 uM
[4] = biological target: 5-hydroxytryptamine receptor 2B (Homo sapiens, UniProt P41595); assay: GPCRScan assay: inhibition of 5-HT2B; design: radioligand conc. used [nm] 1.0 – 2.0, parental cells stable HEK
[5] = biological target: Sodium-dependent noradrenaline transporter (Homo sapiens, UniProt P23975); assay: GPCRScan assay: inhibition of NET; design: radioligand conc. used [nm] 1.3 – 5.0, parental cells stable HEK
[6] = GPCRScan assay: inhibition of GABA/PBR; design: species or system Rattus norvegicus; radioligand conc. used [nm] 0.3 – 2.0, parental cells brain tissue
[7] = biological target: Sigma non-opioid intracellular receptor 1 (Homo sapiens, UniProt Q99720); assay: GPCRScan assay: inhibition of Sigma 1; design: radioligand conc. used [nm] 4.0 – 5.0, parental cells HEKT
[8] = biological target: SWI/SNF-related matrix-associated actin-dependent regulator of chromatin subfamily A member 4 (Homo sapiens, UniProt P51532); assay: Measurement of the ATPase catalytic activity using the ADP-Glo detection (SMARCA4); format: functional
[9] = biological target: Casein kinase II subunit alpha' (Homo sapiens) (UniProt P19784); assay: CSNK2A2 SGC Tm panel (DSF)
[10] = biological target: 5-hydroxytryptamine receptor 1E (Homo sapiens) (UniProt P28566); settings: Compound concentration 10.0 uM
[11] = biological target: GABA-A receptor; anion channel (Rattus norvegicus) (UniProt O09028+P15431+P18506+P18508+P19969+P20236+P23574+P23576+P28471+P28473+P30191+P62813+P63079+P63138+Q91ZM7+Q9ES14); settings: Compound concentration 10.0 uM
[12] = biological target: Muscarinic acetylcholine receptor M1 (Homo sapiens) (UniProt P11229); settings: Compound concentration 10.0 uM
Chain of Muscarinic acetylcholine receptor M1 (Homo sapiens) (P11229 whole entry): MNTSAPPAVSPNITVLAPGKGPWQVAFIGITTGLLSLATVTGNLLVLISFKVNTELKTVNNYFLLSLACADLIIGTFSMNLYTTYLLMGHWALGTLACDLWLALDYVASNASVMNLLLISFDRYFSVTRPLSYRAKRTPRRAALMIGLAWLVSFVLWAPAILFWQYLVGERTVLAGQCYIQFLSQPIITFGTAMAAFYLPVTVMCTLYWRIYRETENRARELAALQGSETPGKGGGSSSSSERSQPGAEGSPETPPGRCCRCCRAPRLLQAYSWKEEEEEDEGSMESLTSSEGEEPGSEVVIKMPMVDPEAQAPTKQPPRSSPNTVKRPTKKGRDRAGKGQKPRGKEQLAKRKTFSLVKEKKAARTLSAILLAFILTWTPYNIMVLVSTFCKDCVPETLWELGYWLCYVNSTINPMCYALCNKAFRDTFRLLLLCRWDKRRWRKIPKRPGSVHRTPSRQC

Chain of Casein kinase II subunit alpha' (Homo sapiens) (P19784 whole entry, looked up): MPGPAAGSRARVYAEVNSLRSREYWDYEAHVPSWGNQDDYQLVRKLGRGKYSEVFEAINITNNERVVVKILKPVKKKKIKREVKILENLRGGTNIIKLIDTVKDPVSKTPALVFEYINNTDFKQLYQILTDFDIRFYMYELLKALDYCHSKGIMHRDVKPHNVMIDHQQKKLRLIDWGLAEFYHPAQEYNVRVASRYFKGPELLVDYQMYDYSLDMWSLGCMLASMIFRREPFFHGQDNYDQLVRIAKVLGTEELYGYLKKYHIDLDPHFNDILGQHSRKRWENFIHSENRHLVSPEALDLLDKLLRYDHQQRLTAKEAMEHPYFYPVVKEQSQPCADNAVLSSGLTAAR
Chain of Sigma non-opioid intracellular receptor 1 (Q99720 whole entry): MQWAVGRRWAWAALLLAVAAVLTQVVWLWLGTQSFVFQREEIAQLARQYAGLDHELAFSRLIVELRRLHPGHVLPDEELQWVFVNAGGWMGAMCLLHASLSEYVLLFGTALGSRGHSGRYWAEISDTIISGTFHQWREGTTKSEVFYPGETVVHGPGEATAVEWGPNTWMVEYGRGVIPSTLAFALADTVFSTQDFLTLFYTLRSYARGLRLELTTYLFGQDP
Chain of 5-hydroxytryptamine receptor 2B (P41595 whole entry): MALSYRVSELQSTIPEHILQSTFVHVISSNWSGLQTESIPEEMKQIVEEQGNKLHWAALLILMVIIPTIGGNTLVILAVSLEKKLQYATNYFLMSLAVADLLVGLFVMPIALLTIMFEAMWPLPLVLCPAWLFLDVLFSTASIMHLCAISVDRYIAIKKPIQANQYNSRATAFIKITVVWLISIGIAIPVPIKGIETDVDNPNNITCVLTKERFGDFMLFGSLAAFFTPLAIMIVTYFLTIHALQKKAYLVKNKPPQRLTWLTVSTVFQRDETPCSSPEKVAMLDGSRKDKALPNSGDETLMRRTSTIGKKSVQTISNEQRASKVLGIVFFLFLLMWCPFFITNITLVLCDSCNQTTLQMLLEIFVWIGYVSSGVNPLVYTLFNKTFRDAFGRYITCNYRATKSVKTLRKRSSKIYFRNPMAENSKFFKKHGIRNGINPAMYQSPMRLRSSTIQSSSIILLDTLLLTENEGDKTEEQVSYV
Chain of Sodium-dependent noradrenaline transporter (P23975 whole entry): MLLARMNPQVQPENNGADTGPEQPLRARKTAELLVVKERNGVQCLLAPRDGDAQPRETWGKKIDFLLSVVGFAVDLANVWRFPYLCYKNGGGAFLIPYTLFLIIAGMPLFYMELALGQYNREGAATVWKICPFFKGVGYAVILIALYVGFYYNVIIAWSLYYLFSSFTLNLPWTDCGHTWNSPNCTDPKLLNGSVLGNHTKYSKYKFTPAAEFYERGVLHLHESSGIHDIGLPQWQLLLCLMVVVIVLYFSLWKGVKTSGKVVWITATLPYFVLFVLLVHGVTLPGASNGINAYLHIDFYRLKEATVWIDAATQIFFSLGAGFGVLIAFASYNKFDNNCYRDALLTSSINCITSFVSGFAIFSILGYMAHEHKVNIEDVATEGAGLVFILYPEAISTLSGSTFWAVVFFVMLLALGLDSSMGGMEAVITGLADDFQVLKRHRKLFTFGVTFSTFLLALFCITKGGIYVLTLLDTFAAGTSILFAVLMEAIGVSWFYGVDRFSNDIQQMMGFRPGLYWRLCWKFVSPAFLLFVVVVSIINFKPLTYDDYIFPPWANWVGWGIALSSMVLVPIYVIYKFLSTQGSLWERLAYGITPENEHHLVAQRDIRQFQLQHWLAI
Chain of SWI/SNF-related matrix-associated actin-dependent regulator of chromatin subfamily A member 4 (P51532 whole entry): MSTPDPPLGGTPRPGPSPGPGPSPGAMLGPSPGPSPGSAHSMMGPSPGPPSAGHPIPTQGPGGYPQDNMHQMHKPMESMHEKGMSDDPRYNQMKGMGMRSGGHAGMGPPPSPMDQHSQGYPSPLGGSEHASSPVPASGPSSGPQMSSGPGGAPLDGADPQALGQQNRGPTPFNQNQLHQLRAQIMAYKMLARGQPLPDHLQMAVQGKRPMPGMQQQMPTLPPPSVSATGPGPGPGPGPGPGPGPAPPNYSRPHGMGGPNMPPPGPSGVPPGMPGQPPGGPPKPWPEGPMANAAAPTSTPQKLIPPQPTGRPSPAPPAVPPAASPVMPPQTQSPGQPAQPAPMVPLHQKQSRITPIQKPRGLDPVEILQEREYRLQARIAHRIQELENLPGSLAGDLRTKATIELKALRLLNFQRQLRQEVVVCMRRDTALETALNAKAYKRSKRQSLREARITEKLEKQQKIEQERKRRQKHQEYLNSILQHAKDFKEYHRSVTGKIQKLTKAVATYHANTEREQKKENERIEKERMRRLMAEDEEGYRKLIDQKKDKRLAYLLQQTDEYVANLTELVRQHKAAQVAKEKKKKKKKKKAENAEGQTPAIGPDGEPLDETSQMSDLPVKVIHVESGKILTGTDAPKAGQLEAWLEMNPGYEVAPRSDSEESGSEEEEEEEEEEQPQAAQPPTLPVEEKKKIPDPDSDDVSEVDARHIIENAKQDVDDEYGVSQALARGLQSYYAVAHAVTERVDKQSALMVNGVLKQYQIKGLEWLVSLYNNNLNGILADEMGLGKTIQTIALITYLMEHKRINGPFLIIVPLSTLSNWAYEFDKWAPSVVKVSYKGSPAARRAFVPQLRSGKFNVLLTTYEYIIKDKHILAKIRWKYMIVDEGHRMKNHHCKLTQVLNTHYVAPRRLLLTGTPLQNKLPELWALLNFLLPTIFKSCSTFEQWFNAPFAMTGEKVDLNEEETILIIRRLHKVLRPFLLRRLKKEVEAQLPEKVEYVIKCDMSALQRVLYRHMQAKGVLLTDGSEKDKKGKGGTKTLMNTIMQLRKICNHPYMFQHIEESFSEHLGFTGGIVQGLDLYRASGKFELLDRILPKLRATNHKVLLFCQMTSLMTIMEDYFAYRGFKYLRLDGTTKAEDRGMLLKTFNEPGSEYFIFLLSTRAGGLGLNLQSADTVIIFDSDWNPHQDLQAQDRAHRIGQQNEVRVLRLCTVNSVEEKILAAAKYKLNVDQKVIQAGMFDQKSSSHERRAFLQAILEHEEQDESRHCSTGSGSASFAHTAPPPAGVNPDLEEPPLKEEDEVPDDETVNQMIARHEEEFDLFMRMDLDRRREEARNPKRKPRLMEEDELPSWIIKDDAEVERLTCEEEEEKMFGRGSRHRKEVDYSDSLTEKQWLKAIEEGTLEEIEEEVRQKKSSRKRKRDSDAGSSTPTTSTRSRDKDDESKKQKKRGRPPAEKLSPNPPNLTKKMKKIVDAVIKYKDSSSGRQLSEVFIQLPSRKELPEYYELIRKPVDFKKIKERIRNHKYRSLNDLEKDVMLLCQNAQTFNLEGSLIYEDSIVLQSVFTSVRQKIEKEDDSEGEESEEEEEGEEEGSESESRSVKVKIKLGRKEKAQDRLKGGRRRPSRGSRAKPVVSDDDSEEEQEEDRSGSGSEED
Chain of 5-hydroxytryptamine receptor 1E (Homo sapiens) (P28566 whole entry): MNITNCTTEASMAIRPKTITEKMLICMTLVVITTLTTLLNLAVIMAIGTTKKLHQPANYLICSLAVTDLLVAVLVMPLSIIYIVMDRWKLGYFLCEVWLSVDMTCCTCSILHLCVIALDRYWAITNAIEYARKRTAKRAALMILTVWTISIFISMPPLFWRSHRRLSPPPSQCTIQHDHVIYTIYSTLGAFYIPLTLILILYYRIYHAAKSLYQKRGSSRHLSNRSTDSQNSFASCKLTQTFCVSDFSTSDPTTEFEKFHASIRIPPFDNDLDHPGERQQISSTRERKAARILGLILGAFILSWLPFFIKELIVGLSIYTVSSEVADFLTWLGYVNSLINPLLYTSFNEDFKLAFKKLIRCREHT
Chain of Beta-3 adrenergic receptor (Homo sapiens) (P13945 whole entry, looked up): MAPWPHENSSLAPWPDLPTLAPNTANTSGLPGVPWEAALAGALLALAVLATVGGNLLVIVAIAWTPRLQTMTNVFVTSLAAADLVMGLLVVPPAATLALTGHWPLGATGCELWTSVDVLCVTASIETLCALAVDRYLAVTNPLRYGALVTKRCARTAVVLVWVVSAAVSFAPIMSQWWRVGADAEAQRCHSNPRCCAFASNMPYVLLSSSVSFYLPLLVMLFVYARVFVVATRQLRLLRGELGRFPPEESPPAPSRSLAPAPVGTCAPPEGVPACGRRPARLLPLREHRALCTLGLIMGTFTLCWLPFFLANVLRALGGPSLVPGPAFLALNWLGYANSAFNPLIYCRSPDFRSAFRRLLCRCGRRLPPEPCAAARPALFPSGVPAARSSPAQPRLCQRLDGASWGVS

| IC50 [1] | delta Tm Staurosporine positive control [2] | ΔTm ([2]; Compound concentration 10.0 uM) | inhibition [3] | Ki ([4]; read-out: Ki) | Ki ([4]; read-out: pKi (converted)) | Ki [5] | Ki [6] | pKi [6] | Ki ([7]; read-out: Ki) | Ki ([7]; read-out: pKi (converted)) | IC50 [8] | delta Tm Staurosporine positive control [9] | ΔTm ([9]; Compound concentration 10.0 uM) | inhibition [10] | inhibition [11] | inhibition [12] | Compound |
| --- | --- | --- | --- | --- | --- | --- | --- | --- | --- | --- | --- | --- | --- | --- | --- | --- | --- |
| > 200 µM (not active) | 4.26 | 0.0547 | -3.49% | – | – | – | – | – | – | – | – | – | – | – | – | – | COC[C@H](NC(=O)c1ccn(S(C)(=O)=O)c1)C(=O)Nc1nc(-c2cccc(-c3ccn(C)n3)c2)cs1 |
| – | – | – | – | 0.508 µM | 0.49 µM | 8.27 µM | 1.58 µM | 5.81 | 0.417 µM | 0.407 µM | 3.99 µM (not active) | 4.26 | -0.217 | -0.87% | 49.4% | 23.2% | C[C@H](NC(=O)c1cn(C2(C#N)CC2)cn1)C(=O)Nc1nc(-c2cccc(-c3ccn(C)n3)c2)cs1 |
